Assay type in all cases: cell-based
For assay [1], the target named is T1, IKZF2 (Homo sapiens (Human), UniProt Q96SW2+Q9UKS7). Briefly: In vitro IKZF2 HiBit Assay (HEK293T Flp-in-HiBiT cells). In a few lines:
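Remaining tagged Helios was read as lytic HiBiT/LgBiT luminescence normalized to DMSO, yielding binned DC50 and Dmax values. Treatment ran 6 h, with compounds at 11 three-fold doses diluted from 1 mM and 0.1% final DMSO. The cells were HEK293T Flp-in with CRISPR knock-in of HiBiT at the IKZF2 N-terminus.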
Background: The HiBiT peptide binds its large partner to form an active luciferase.

Assay [2] addresses T1, IKZF2. In words: In vitro IKZF2 FACS Assay in Jurkat cells. As to conditions: 24 hrs; for DC50: half maximal degradation concentration; for Dmax: maximal degradation percentage. As to the method:
In vitro IKZF2 FACS Assay
DC50, A: <1 nM; B: 1-10 nM; C: 10-100 nM; D: 100-1000 nM; E: >1000 nM. Dmax, A: >80%; B: 60-80%; C: 40-60%; D: 20-40%; E: <20%.

For another assay, the target named is IKZF1 (Homo sapiens (Human), UniProt Q13422+Q96SW2). Briefly: In vitro IKZF1 HiBit Assay (HEK293T Flp-in-HiBiT-IKZF1 stable cell line). The procedure, abridged: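 Degradation was measured as loss of luminescence from the HiBiT-IKZF1 tag after 6 h compound treatment, with 0.1% final DMSO, in stable HEK293T Flp-in cells. Values were normalized to DMSO, giving the 50% degradation concentration and the maximal degradation range.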
Sequence of IKZF1 (Q13422 whole entry): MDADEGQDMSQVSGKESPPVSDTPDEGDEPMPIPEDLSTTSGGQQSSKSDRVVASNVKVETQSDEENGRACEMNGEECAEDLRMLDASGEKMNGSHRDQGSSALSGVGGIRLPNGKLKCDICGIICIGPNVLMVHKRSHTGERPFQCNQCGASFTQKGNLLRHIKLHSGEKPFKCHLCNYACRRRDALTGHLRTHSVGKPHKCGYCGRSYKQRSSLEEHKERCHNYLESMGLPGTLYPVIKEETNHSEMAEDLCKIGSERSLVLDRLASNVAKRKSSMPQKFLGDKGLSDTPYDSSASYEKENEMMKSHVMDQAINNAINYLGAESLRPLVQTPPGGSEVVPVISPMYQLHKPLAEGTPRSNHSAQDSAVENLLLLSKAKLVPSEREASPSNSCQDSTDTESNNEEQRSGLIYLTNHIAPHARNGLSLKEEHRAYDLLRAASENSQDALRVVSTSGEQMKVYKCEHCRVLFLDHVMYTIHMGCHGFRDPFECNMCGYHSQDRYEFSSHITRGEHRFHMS
Sequence of IKZF1 (Q96SW2 whole entry): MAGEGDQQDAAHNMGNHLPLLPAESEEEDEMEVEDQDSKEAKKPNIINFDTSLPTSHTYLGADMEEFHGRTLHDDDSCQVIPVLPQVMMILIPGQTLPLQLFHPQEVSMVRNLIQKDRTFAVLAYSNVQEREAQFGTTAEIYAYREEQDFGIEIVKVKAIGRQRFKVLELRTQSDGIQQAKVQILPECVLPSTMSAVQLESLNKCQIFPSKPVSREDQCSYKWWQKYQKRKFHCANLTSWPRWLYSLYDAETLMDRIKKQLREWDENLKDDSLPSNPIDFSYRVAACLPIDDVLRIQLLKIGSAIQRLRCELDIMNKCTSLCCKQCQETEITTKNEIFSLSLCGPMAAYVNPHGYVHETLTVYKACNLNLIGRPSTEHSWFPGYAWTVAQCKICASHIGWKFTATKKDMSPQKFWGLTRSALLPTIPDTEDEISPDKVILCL
Sequence of IKZF1 (Q16531 2-1140 partner): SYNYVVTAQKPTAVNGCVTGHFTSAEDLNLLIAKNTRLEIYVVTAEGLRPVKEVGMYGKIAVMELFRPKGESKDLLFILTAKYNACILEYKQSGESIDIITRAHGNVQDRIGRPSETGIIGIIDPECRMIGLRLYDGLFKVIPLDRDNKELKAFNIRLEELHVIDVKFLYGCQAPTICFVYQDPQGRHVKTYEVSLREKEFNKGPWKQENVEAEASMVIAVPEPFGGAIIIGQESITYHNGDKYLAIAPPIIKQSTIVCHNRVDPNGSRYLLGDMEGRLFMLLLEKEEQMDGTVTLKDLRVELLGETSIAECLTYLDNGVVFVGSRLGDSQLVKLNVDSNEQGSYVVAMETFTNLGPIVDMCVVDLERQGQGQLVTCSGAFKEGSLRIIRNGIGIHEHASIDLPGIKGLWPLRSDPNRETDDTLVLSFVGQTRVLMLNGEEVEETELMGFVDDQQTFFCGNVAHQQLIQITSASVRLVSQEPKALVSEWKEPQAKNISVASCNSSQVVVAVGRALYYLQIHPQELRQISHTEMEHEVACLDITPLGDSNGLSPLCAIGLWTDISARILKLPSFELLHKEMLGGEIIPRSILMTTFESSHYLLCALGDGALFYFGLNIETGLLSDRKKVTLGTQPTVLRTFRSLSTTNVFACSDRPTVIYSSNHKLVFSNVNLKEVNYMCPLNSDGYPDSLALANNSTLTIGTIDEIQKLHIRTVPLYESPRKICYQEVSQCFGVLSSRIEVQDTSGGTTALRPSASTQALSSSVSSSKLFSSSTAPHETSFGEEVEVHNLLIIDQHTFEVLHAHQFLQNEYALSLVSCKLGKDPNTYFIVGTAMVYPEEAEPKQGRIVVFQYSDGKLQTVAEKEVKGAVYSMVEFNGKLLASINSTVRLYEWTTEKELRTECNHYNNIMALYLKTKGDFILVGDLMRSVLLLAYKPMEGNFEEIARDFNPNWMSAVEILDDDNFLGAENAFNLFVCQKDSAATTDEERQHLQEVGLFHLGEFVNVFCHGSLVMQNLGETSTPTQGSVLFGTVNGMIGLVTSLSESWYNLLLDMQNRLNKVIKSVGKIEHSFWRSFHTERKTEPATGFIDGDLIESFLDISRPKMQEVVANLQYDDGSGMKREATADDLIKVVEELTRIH

[3] abbreviates: HEK293T Flp-in-HiBiT cells, 6 hrs incubation; read-out: IKZF2 HiBit DC50.
Setting [4] is: HEK-293T; HEK293T Flp-in-HiBiT cells, 6 hrs incubation; read-out: IKZF2 HiBit Dmax (%).
The mark [5] stands for this setting: HEK293T Flp-in-HiBiT-IKZF1 stable cell line, 6 hrs incubation; read-out: IKZF1 HiBit DC50.
Setting [6] is: HEK-293T; HEK293T Flp-in-HiBiT-IKZF1 stable cell line, 6 hrs incubation; read-out: IKZF1 HiBit Dmax (%).

Where two headings read alike, the source gives them in different places.

T1 sequence (Q9UKS7 whole entry): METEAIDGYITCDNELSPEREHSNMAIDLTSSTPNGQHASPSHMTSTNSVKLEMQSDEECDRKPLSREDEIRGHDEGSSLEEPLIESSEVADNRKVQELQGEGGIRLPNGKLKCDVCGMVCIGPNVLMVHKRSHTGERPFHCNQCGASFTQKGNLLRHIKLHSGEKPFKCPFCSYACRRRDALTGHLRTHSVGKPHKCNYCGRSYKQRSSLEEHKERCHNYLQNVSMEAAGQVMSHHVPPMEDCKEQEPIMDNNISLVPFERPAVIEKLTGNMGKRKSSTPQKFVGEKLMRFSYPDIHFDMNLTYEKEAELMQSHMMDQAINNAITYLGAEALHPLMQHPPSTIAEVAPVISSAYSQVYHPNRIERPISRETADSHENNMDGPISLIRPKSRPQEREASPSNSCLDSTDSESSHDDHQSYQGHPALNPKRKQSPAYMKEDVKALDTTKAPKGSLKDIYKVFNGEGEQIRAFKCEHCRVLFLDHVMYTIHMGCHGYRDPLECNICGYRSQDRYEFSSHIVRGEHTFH
T1 sequence (Q96SW2 whole entry): as the sequence (Q96SW2 whole entry) above
T1 sequence (Q16531 2-1140 partner): as the sequence (Q16531 2-1140 partner) above

For `CCNc1n[nH]c2c(CN3CCCC3)cc(-c3ccc4c(c3)CN(C3CCC(=O)NC3=O)C4=O)nc12` (stereo not drawn) [Example 199, 3-(5-(3-(ethylamino)-7-(pyrrolidin-1-ylmethyl)-1H-pyrazolo[4,3-b]pyridin-5-yl)-1-oxoisoindolin-2-yl) piperidine-2,6-dione], the DC50 on IKZF2 [1] (setting [3]) lay in the range of 1 to 10 nM; at IKZF2 [2], 10 to 100 nM; at IKZF1 (setting [5]) it was 10 to 100 nM. For the same molecule, the Dmax was > 80% on IKZF2 [1] (setting [4]), 60 to 80% at IKZF2 [2] and 20 to 40% on IKZF1 (setting [6]).

As to `O=C1CCC(N2Cc3cc(-c4cc(CN5CCCC5)c5cnn(C6COC6)c5n4)ccc3C2=O)C(=O)N1` (stereo not drawn) [Example 203, 3-(5-(1-(oxetan-3-yl)-4-(pyrrolidin-1-ylmethyl)-1H-pyrazolo[3,4-b]pyridin-6-yl)-1-oxoisoindolin-2-yl) piperidine-2,6-dione], the DC50 on IKZF2 [1] (setting [3]) fell in the range of 1 to 10 nM; on IKZF2 [2] it was 1 to 10 nM; on IKZF1 (setting [5]), 10 to 100 nM. For the same molecule, the Dmax at IKZF2 [1] (setting [4]) is > 80%; on IKZF2 [2], > 80%; on IKZF1 (setting [6]) it was 20 to 40%.

With `O=C1CCC(N2Cc3cc(-c4cc(CN5CCCC5)c5cnn(C6CCC6)c5n4)ccc3C2=O)C(=O)N1` (stereo not drawn) [Example 206, 3-(5-(1-cyclobutyl-4-(pyrrolidin-1-ylmethyl)-1H-pyrazolo[3,4-b]pyridin-6-yl)-1-oxoisoindolin-2-yl) piperidine-2,6-dione], the DC50 is 1 to 10 nM on IKZF2 [1] (setting [3]), 1 to 10 nM at IKZF2 [2] and > 10000 nM on IKZF1 (setting [5]). The Dmax is > 80% on IKZF2 [1] (setting [4]), > 80% at IKZF2 [2] and < 20% at IKZF1 (setting [6]).

Turning to `O=C1CCC(N2Cc3cc(-c4nc(CN5CCCC5)c5ccn(C6CS(=O)(=O)C6)c5n4)ccc3C2=O)C(=O)N1` (stereo not drawn) [Example 220, 3-(5-(7-(1,1-dioxidothietan-3-yl)-4-(pyrrolidin-1-ylmethyl)-7H-pyrrolo[2,3-d]pyrimidin-2-yl)-1-oxoisoindolin-2-yl) piperidine-2,6-dione], the DC50 at IKZF2 [1] (setting [3]) was 10 to 100 nM; at IKZF2 [2], 10 to 100 nM; on IKZF1 (setting [5]) it was > 10000 nM. In addition, the Dmax at IKZF2 [1] (setting [4]) is 60 to 80%; at IKZF2 [2], 40 to 60%; on IKZF1 (setting [6]), < 20%.

For `Cc1cn(C2COC2)c2nc(-c3ccc4c(c3)CN(C3CCC(=O)NC3=O)C4=O)cc(CN3CCCC3)c12` (stereo not drawn) [Example 240, 3-(5-(3-methyl-1-(oxetan-3-yl)-4-(pyrrolidin-1-ylmethyl)-1H-pyrrolo[2,3-b]pyridin-6-yl)-1-oxoisoindolin-2-yl) piperidine-2,6-dione], the values for the DC50 on IKZF2 [1] (setting [3]), on IKZF2 [2] and at IKZF1 (setting [5]) were 1 to 10 nM, 1 to 10 nM and > 10000 nM, respectively. In addition, the Dmax at IKZF2 [1] (setting [4]) was > 80%; at IKZF2 [2] it was > 80%; on IKZF1 (setting [6]), < 20%.

Regarding `O=C1CCC(N2Cc3cc(-c4cc(CN5CCCC5)c5nccc(OC6CC6)c5n4)ccc3C2=O)C(=O)N1` (stereo not drawn) [Example 242, 3-(5-(8-cyclopropoxy-4-(pyrrolidin-1-ylmethyl)-1,5-naphthyridin-2-yl)-1-oxoisoindolin-2-yl) piperidine-2,6-dione], the DC50 on IKZF2 [1] (setting [3]) was 1 to 10 nM; on IKZF2 [2] it was 1 to 10 nM; on IKZF1 (setting [5]), > 10000 nM. For the same molecule, the Dmax at IKZF2 [1] (setting [4]) is > 80%; on IKZF2 [2], > 80%; at IKZF1 (setting [6]), < 20%.

`O=C1CCC(N2Cc3cc(-c4cc(CN5CCCC5)c5c(C(F)(F)F)nn(C6COC6)c5n4)ccc3C2=O)C(=O)N1` (stereo not drawn) [Example 245, 3-(5-(1-(oxetan-3-yl)-4-(pyrrolidin-1-ylmethyl)-3-(trifluoromethyl)-1H-pyrazolo[3,4-b]pyridin-6-yl)-1-oxoisoindolin-2-yl) piperidine-2,6-dione]: the DC50 at IKZF2 [1] (setting [3]) was 1 to 10 nM; at IKZF2 [2], 1 to 10 nM; on IKZF1 (setting [5]), > 10000 nM. For the same molecule, the Dmax on IKZF2 [1] (setting [4]) is 40 to 60%; on IKZF2 [2] it was 40 to 60%; on IKZF1 (setting [6]), < 20%.

For `Cc1nn(C2COC2)c2nc(-c3ccc4c(c3)CN(C3CCC(=O)NC3=O)C4=O)cc(CN3CCCC3)c12` (stereo not drawn) [Example 246, 3-(5-(3-methyl-1-(oxetan-3-yl)-4-(pyrrolidin-1-ylmethyl)-1H-pyrazolo[3,4-b]pyridin-6-yl)-1-oxoisoindolin-2-yl) piperidine-2,6-dione], the DC50 on IKZF2 [1] (setting [3]) was 1 to 10 nM; at IKZF2 [2], 1 to 10 nM; on IKZF1 (setting [5]) it was > 10000 nM. For the same molecule, the Dmax at IKZF2 [1] (setting [4]) is > 80%; on IKZF2 [2], > 80%; on IKZF1 (setting [6]) it was < 20%.

In the case of `Cn1cc(-n2ccc3c(CN4CCCC4)cc(-c4ccc5c(c4)CN(C4CCC(=O)NC4=O)C5=O)nc32)cn1` (stereo not drawn) [Example 248, 3-(5-(1-(1-methyl-1H-pyrazol-4-yl)-4-(pyrrolidin-1-ylmethyl)-1H-pyrrolo[2,3-b]pyridin-6-yl)-1-oxoisoindolin-2-yl) piperidine-2,6-dione], the DC50 at IKZF2 [1] (setting [3]) was < 1 nM; on IKZF2 [2], < 1 nM; at IKZF1 (setting [5]), 100 to 1000 nM. For the same molecule, the Dmax at IKZF2 [1] (setting [4]) was > 80%; on IKZF2 [2], > 80%; at IKZF1 (setting [6]), 20 to 40%.

In the case of `O=C1CCC(N2Cc3cc(-c4cc(CN5CCCC5)c5nccc(OC(F)F)c5n4)ccc3C2=O)C(=O)N1` (stereo not drawn) [Example 249, 3-(5-(8-(difluoromethoxy)-4-(pyrrolidin-1-ylmethyl)-1,5-naphthyridin-2-yl)-1-oxoisoindolin-2-yl) piperidine-2,6-dione], the DC50 was 1 to 10 nM at IKZF2 [1] (setting [3]), 1 to 10 nM at IKZF2 [2] and > 10000 nM at IKZF1 (setting [5]). Moreover, the figures for the Dmax at IKZF2 [1] (setting [4]), on IKZF2 [2] and on IKZF1 (setting [6]) were > 80%, > 80% and < 20%, respectively.

Regarding `COC[C@@H]1CCCN1Cc1cc(-c2ccc3c(c2)CN(C2CCC(=O)NC2=O)C3=O)nc2c1ccn2C1COC1` (stereo partly drawn) [Example 250, 3-(5-(4-(((S)-2-(methoxymethyl)pyrrolidin-1-yl)methyl)-1-(oxetan-3-yl)-1H-pyrrolo[2,3-b]pyridin-6-yl)-1-oxoisoindolin-2-yl) piperidine-2,6-dione], the figures for the DC50 on IKZF2 [1] (setting [3]), on IKZF2 [2] and on IKZF1 (setting [5]) were 1 to 10 nM, 1 to 10 nM and > 10000 nM, respectively. The Dmax at IKZF2 [1] (setting [4]) was 60 to 80%; on IKZF2 [2] it was 60 to 80%; on IKZF1 (setting [6]), < 20%.

Turning to `CC1(C)CCCN1Cc1cc(-c2ccc3c(c2)CN(C2CCC(=O)NC2=O)C3=O)nc2c1ccn2C1COC1` (stereo not drawn) [Example 254, 3-(5-(4-((2,2-dimethylpyrrolidin-1-yl)methyl)-1-(oxetan-3-yl)-1H-pyrrolo[2,3-b]pyridin-6-yl)-1-oxoisoindolin-2-yl) piperidine-2,6-dione], the Dmax is 60 to 80% on IKZF2 [1] (HEK-293T, read-out: IKZF2 HiBit Dmax (%)); 60 to 80% at IKZF2 [2]; < 20% on IKZF1 (HEK-293T, read-out: IKZF1 HiBit Dmax (%)). Further, the DC50 was 1 to 10 nM on IKZF2 [1] (read-out: IKZF2 HiBit DC50; HEK293T Flp-in-HiBiT cells, 6 hrs incubation); 10 to 100 nM at IKZF2 [2]; > 10000 nM at IKZF1 (read-out: IKZF1 HiBit DC50; HEK293T Flp-in-HiBiT-IKZF1 stable cell line, 6 hrs incubation).

In the case of `COC1CC(n2ccc3c(CN4CCCC4)cc(-c4ccc5c(c4)CN(C4CCC(=O)NC4=O)C5=O)nc32)C1` (stereo not drawn) [Example 255, 3-(5-(1-(3-methoxycyclobutyl)-4-(pyrrolidin-1-ylmethyl)-1H-pyrrolo[2,3-b]pyridin-6-yl)-1-oxoisoindolin-2-yl) piperidine-2,6-dione], the values for the DC50 on IKZF2 [1] (setting [3]), on IKZF2 [2] and at IKZF1 (setting [5]) were 1 to 10 nM, 1 to 10 nM and 10 to 100 nM, respectively. Moreover, the Dmax on IKZF2 [1] (setting [4]) was > 80%; on IKZF2 [2] it was > 80%; at IKZF1 (setting [6]), 20 to 40%.

Source of the values: patent US20250214991A1 (Oncopia Therapeutics, Inc. d/b/a/ SK Life Science Labs, priority 2022, published 2025).
